Measurements: patent US20110039762A1, “TARGETED ANTIMICROBIAL MOIETIES” (C3 JIAN, INC., priority 2009, published 2011)
Entries after “also recorded” stand apart in the source; their conditions may differ.

Legend:
[1] = tested on: S. epidermidis; experiment: Kill or inhibit growth/proliferation; morphology, biofilm and growth disruption (Tables 5, 6); format: cell-based, Staphylococcus epidermidis; design: key: A: Peptide aggregates; B: Less hyphal formation; Clumps; Diffuse clumps and small polyps; F: Diffuse growth; H: Thin; I: Growth inhibition; Microcolony formation; Rippled; Small polyps; Thick; W: Halo formation on top, microlonies on bottom; further: test concentration or dose not given here
[2] = tested on: microorganisms; experiment: Peptides having multiple activities (targeting/binding, antimicrobial, growth or phenotype altering)
Text: In certain embodiments, peptides described herein can have multiple activities. Thus for example, a peptide can have both binding/targeting activity and antimicrobial activity. Such peptides can be used, e.g., in a chimeric construct, for any or all of these properties. Thus, for example, a peptide designated “B” in Table 8 can be used as a targeting peptide. If it is also designated G or M it can also be used for antimicrobial activity.

[3] = tested on: M. luteus; experiment: Kill or inhibit growth/proliferation; morphology, biofilm and growth disruption (Tables 5, 6); format: cell-based, Micrococcus luteus; design: key: A: Peptide aggregates; B: Less hyphal formation; Clumps; Diffuse clumps and small polyps; F: Diffuse growth; H: Thin; I: Growth inhibition; Microcolony formation; Rippled; Small polyps; Thick; W: Halo formation on top, microlonies on bottom; further: test concentration or dose not given here
[4] = tested on: microorganisms (e.g., bacteria, yeasts, fungi); experiment: Targeting peptide binding to target microorganisms (Table 3); conditions: preferably 1x PBS
[5] = tested on: C. jeikeium; experiment: Kill or inhibit growth/proliferation; morphology, biofilm and growth disruption (Tables 5, 6); format: cell-based, Corynebacterium jeikeium; design: key: A: Peptide aggregates; B: Less hyphal formation; Clumps; Diffuse clumps and small polyps; F: Diffuse growth; H: Thin; I: Growth inhibition; Microcolony formation; Rippled; Small polyps; Thick; W: Halo formation on top, microlonies on bottom; further: test concentration or dose not given here
[6] = tested on: MRSA; experiment: as above; format: cell-based, Methicillin-resistant Staphylococcus aureus; design: key: A: Peptide aggregates; B: Less hyphal formation; Clumps; Diffuse clumps and small polyps; F: Diffuse growth; H: Thin; I: Growth inhibition; Microcolony formation; Rippled; Small polyps; Thick; W: Halo formation on top, microlonies on bottom; further: test concentration or dose not given here
[7] = tested on: B. subtilis; experiment: as above; format: cell-based, Bacillus subtilis; design: key: A: Peptide aggregates; B: Less hyphal formation; Clumps; Diffuse clumps and small polyps; F: Diffuse growth; H: Thin; I: Growth inhibition; Microcolony formation; Rippled; Small polyps; Thick; W: Halo formation on top, microlonies on bottom; further: test concentration or dose not given here
[8] = tested on: C. jejuni; experiment: as above; format: cell-based, Campylobacter jejuni; design: key: A: Peptide aggregates; B: Less hyphal formation; Clumps; Diffuse clumps and small polyps; F: Diffuse growth; H: Thin; I: Growth inhibition; Microcolony formation; Rippled; Small polyps; Thick; W: Halo formation on top, microlonies on bottom; further: test concentration or dose not given here
[9] = tested on: S. pneumoniae; experiment: as above; format: cell-based, Streptococcus pneumoniae; design: key: A: Peptide aggregates; B: Less hyphal formation; Clumps; Diffuse clumps and small polyps; F: Diffuse growth; H: Thin; I: Growth inhibition; Microcolony formation; Rippled; Small polyps; Thick; W: Halo formation on top, microlonies on bottom; further: test concentration or dose not given here
[10] = microorganism the targeting peptide binds, binding in aqueous buffers varied by peptide solubility
[11] = microorganism(s) the targeting peptide binds, peptide binding conducted in aqueous buffers varied by peptide solubility

| Substance | Organism, effect [1] | Activities [2] | Organism, effect [3] | Target(s) [4, 10] | Organism, effect [5] | Organism, effect [6] | Organism, effect [7] | Target(s) ([4]; microorganism(s) the targeting peptide binds, binding in aqueous buffers depending on peptide solubility) | Target(s) [4, 11] | Organism, effect [8] | Organism, effect [9] |
| --- | --- | --- | --- | --- | --- | --- | --- | --- | --- | --- | --- |
| LIQKGLNQTFIVVIRLNNFIKKS [PF-013] | S. epidermidis (C) | G B | M. luteus (D) | M. luteus and P. mirabilis and E. coli and P. aeruginosa and MRSA and S. pneumoniae and C. jeikeium and C. jejuni | C. jeikeium (D) | MRSA (R) | – | – | – | – | – |
| PF-003: peptide having multiple activities (chain 1 MNNWIKVAQISVTVINEVIDIMKEKQNGGK; chain 2 MNNWIKVAQISVTVINEVIDIMKEKQNGGK; Peptide with targeting and/or antimicrobial activity) | S. epidermidis (D) | G B | M. luteus (A) | S. epidermidis and M. luteus and P. mirabilis and C. albicans and MRSA and C. jeikeium | C. jeikeium (A) | MRSA (R) | – | – | – | – | – |
| PF-010: peptide having multiple activities (chain 1 MDIDVNKLLQAFVYFKSFEKLRHNNS; chain 2 MDIDVNKLLQAFVYFKSFEKLRHNNS; Peptide with targeting and/or antimicrobial activity) | S. epidermidis (S) | G B | M. luteus (A) | S. epidermidis; also recorded: M. luteus; also recorded: E. coli; also recorded: C. albicans | C. jeikeium (A) | MRSA (R) | – | – | – | – | – |
| PF-021: peptide having multiple activities (chain 1 FSLNFSKQKYVTVN; chain 2 FSLNFSKQKYVTVN; Peptide with targeting and/or antimicrobial activity) | S. epidermidis (A) | G B | M. luteus (A) | S. epidermidis; also recorded: M. luteus; also recorded: P. mirabilis; also recorded: E. coli; also recorded: C. albicans; also recorded: E. faecalis; also recorded: C. jeikeium | C. jeikeium (R) | MRSA (R) | – | – | – | – | – |
| PF-025: peptide having multiple activities (chain 1 LLIIFRLWLELKWKNKK; chain 2 LLIIFRLWLELKWKNKK; Peptide with targeting and/or antimicrobial activity) | S. epidermidis (S) | G B | M. luteus (A) | S. epidermidis and M. luteus and P. mirabilis and E. coli and P. aeruginosa and MRSA and E. faecalis and C. jejuni | C. jeikeium (A) | MRSA (R) | – | – | – | – | – |
| PF-036: peptide having multiple activities (chain 1 ILNRLSRIVSNEVTSLIYSLK; chain 2 ILNRLSRIVSNEVTSLIYSLK; Peptide with targeting and/or antimicrobial activity) | S. epidermidis (S) | G B | M. luteus (A) | S. epidermidis and M. luteus and P. mirabilis and E. coli and C. albicans and MRSA and S. pneumoniae and C. jejuni | C. jeikeium (A) | MRSA (R) | – | – | – | – | – |
| PF-042: peptide having multiple activities (chain 1 LLLSYFRYTGALLQSLF; chain 2 LLLSYFRYTGALLQSLF; Peptide with targeting and/or antimicrobial activity) | S. epidermidis (D) | G B | M. luteus (C) | – | C. jeikeium (S) | MRSA (R) | – | – | – | – | – |
| PF-043: peptide having multiple activities (chain 1 MIKNETAYQMNELLVIRSAYAK; chain 2 MIKNETAYQMNELLVIRSAYAK; Peptide with targeting and/or antimicrobial activity) | S. epidermidis (D) | G B | M. luteus (C) | M. luteus; also recorded: C. jejuni | C. jeikeium (A) | MRSA (R) | – | – | – | – | – |
| PF-052: peptide having multiple activities (chain 1 QELINEAVNLLVKSK; chain 2 QELINEAVNLLVKSK; Peptide with targeting and/or antimicrobial activity) | S. epidermidis (S) | G B | M. luteus (A) | S. epidermidis and M. luteus and E. coli and MRSA and E. faecalis and C. jeikeium and C. jejuni | C. jeikeium (D) | MRSA (R) | – | – | – | – | – |
| PF-070: peptide having multiple activities (SMVKSEIVDLLNGEDNDD; Peptide with targeting and/or antimicrobial activity) | – | G B | – | S. epidermidis; also recorded: C. jejuni | – | – | B. subtilis (D) | – | – | – | – |
| PF-076: peptide having multiple activities (LYQYELLSKEEYLKCTLIINQRRNEQK; Peptide with targeting and/or antimicrobial activity) | S. epidermidis (S) | G B | M. luteus (A) | – | C. jeikeium (A) | MRSA (R) | – | – | – | – | – |
| PF-303 (EYPWSWISEPWPWDKSFYK; Peptide with targeting and/or antimicrobial activity) | – | – | – | – | – | – | B. subtilis (C) | – | – | – | – |
| PF-306: peptide having multiple activities (GCILPHKKDNYNYIMSKFQDLVKITSKK; Peptide with targeting and/or antimicrobial activity) | – | G B | – | – | – | – | B. subtilis (C) | C. difficile | – | – | – |
| PF-550: peptide having multiple activities (chain 1 STENGWQEFESYADVGVDPRRYVPL; chain 2 STENGWQEFESYADVGVDPRRYVPL; Peptide with targeting and/or antimicrobial activity) | – | G B | – | – | – | – | B. subtilis (D) | – | S. pneumoniae | – | – |
| PF-552: peptide having multiple activities (chain 1 ELDKADAALGPAKNLAPLDVINRS; chain 2 ELDKADAALGPAKNLAPLDVINRS; Peptide with targeting and/or antimicrobial activity) | – | G B | – | – | – | – | B. subtilis (D) | – | S. pneumoniae | – | – |
| PF-554: peptide having multiple activities (chain 1 AKNFLTRTAEEIGEQAVREGNINGP; chain 2 AKNFLTRTAEEIGEQAVREGNINGP; Peptide with targeting and/or antimicrobial activity) | – | G B | – | – | – | – | B. subtilis (D) | – | S. pneumoniae | – | – |
| PF-567: peptide having multiple activities (chain 1 QQRVKAVDASLSQVSTQVSGAVASA; chain 2 QQRVKAVDASLSQVSTQVSGAVASA; Peptide with targeting and/or antimicrobial activity) | – | G B | M. luteus (C) | – | C. jeikeium (C) | MRSA (D) | – | – | S. epidermidis and P. aeruginosa and C. albicans and MRSA and S. pneumoniae and C. jeikeium | C. jejuni (D) | S. pneumoniae (D) |
| PF-571 (SDLLYYPNENREDSPAGVVKEVKE; Peptide with targeting and/or antimicrobial activity) | – | – | – | – | – | – | B. subtilis (D) | – | – | – | – |
| PF-574 (LVKSGKLESPYEHSEHLTLSQEKGLE; Peptide with targeting and/or antimicrobial activity) | – | – | – | – | – | – | B. subtilis (D) | – | – | – | – |
